Among the data in patent US4525589A, “Isoquinolinesulfonyl derivatives” (Asahi Kasei Kogyo Kabushiki Kaisha, priority 1981, dated 1985) are change in vivo and LD50 values, retold here.

One data set relates to femoral artery. The data set can be described thus: Effect on blood flow volume of femoral artery of dog. It counts as in vivo, dog of mixed breed. Conditions: Canis lupus familiaris, iv, 1 mg/Kg intravenous; anesthetized dog; read-out: Increased Blood Flow Volume in Femoral Artery. Here is the method:
(§1) The effect of the isoquinolinesulfonyl derivatives and the pharmaceutically acceptable acid addition salts of this invention on the vasodilatation of the femoral and vertebral arteries can be measured by anesthetizing a dog of mixed breed weighting 8 to 15 Kg by an intravenous administration of 35 mg/Kg of pentbarbital, providing an acute type probe (a product of Nippon Koden K.K., Japan) with the femoral and vertebral arteries, administering the isoquinolinesulfonyl derivatives and the pharmaceutically acceptable acid addition salts to the femoral vein through a polyethylene tube inserted into the femoral vein side chain and measuring the blood flow volume with an electromagnetic flowmeter (a product of Nippon Koden K.K., Japan, "MF-27"). Among the isoquinolinesulfonyl compounds of Formula (I) of this invention, those with l=0 and the [drawing 37] group show a high action for increasing blood flow and simultaneously a selectivity to vertebral arteries. For example, when 1 mg/Kg of 1-(5-isoquinolinesulfonyl)piperazine, i.e., Compound (35) was intravenously administered, the increased blood flow volumes in the vertebral artery and in the femoral artery were 98% and 65%, respectively. Also the isoquinolinesulfonyl compounds of Formula (I) of this invention with l=1 and one of the R2 and R3 groups=a hydrogen atom show a continuing blood flow increase. With 1 mg/Kg of N-(2-aminoethyl)-5-isoquinolinesulfonamide, i.e., Compound (1), an increase in the blood flow volume in the vertebral artery was continued for at least 30 minutes.
(§2) The effect on the vasodilatation of the femoral and vertebral arteries was measured by anesthetizing a dog of mixed breed weighing 8 to 15 Kg by an intravenous administration of 35 mg/Kg of pentabarbital, providing an acute type probe (a product of Nippon Koden K.K., Japan) with the femoral and vertebral arteries, administering the 5-isoquinolinesulfonyl derivatives and their pharmaceutically acceptable acid addition salts to the femoral vein through a polyethylene tube inserted into the femoral vein side chain and measuring the blood flow volume with an electromagnetic blood flowmeter (a product of Nippon Koden K.K., Japan, "MF-27").

In a further data set the test system is vertebral artery. Kind of data set: Effect on blood flow volume of vertebral artery of dog. Type of data set: in vivo, dog of mixed breed. Conditions: Canis lupus familiaris; 1 mg/Kg intravenous; anesthetized dog; read-out: Increased Blood Flow Volume in Vertebral Artery. Here is the method:
as §1, §2

Data set [1] is described as follows: Acute toxicity, intravenous administration to male ddY-strain mice. Conditions: mouse, in vivo. Here is the method:
The acute toxicity of the 5-isoquinolinesulfonyl derivatives and their pharmaceutically acceptable acid addition salts were measured by giving male ddY-strain mice an intravenous administration.

In general, LD50 refers to the dose at which mortality reaches 50%. High values mean a less toxic substance, low ones a more toxic substance.

With `NCCNS(=O)(=O)c1cccc2cnccc12` [Compound 1], the values for the change in vivo at 1 mg/kg in the data set with femoral artery and with vertebral artery were 30% and 45%, respectively. The LD50 in data set [1] was 108 mg/kg.
The corresponding values for `NCCCCNS(=O)(=O)c1cccc2cnccc12` [Compound 3] are 33%, 36% and 87 mg/kg.
The corresponding values for `CCCCN(CCCC)CCCNS(=O)(=O)c1cccc2cnccc12` [Compound 19] are 25%, 20% and 180 mg/kg.
The corresponding values for `CNS(=O)(=O)c1cccc2cnccc12` [Compound 25] are 38%, 29% and 137 mg/kg.
Take `O=S(=O)(c1cccc2cnccc12)N1CCCC1` [Compound 33]: the change in vivo at 1 mg/kg in the data set on femoral artery is 35%; in the data set with vertebral artery it was 37%. Moreover, the median lethal dose (LD50) in data set [1] was 150 mg/kg.
For `O=S(=O)(c1cccc2cnccc12)N1CCNCC1` [Compound 35] the same measures were 69%, 98% and 29 mg/kg.
The corresponding values for `CN1CCN(S(=O)(=O)c2cccc3cnccc23)CC1` [Compound 36] are 35%, 63% and 94 mg/kg.
The corresponding values for `CC1CN(S(=O)(=O)c2cccc3cnccc23)CCN1` (stereo not drawn) [Compound 37] are 65%, 90% and 89 mg/kg.
As to `CC1CN(S(=O)(=O)c2cccc3cnccc23)C(C)CN1` (stereo not drawn) [Compound 40], the results for the change in vivo at 1 mg/kg in the data set with femoral artery and with vertebral artery were 50% and 110%, respectively. Moreover, the 50% lethal dose (LD50) in data set [1] turned out to be 42 mg/kg.
For `CC(C)CC1CN(S(=O)(=O)c2cccc3cnccc23)CCN1` (stereo not drawn) [Compound 46] the same measures were 32%, 55% and 130 mg/kg.
The corresponding values for `CCCCCCN1CCN(S(=O)(=O)c2cccc3cnccc23)CC1` [Compound 51] are 39%, 68% and 108 mg/kg.
For `O=S(=O)(c1cccc2cnccc12)N1CCN(CC=Cc2ccccc2)CC1` [Compound 59] the same measures were 25%, 49% and 145 mg/kg.
